Source: patent US20160030440A1, “ANTI-TUMORAL COMPOSITION COMPRISING A PI3KBETA-SELECTIVE INHIBITOR AND A PI3KALPHA-SELECTIVE INHIBITOR” (SANOFI, priority 2013, published 2016)

What was measured:
mTOR [1] = biological target: T1, mTOR (Homo sapiens, UniProt P42345); test: mTOR inhibition; type: biochemical; conditions: up to 10 μM
PC-3 cells = test: In vitro anti-proliferative activity, CelltiterGlo, ray design; type: cell-based, human; conditions: PC-3, single agent, 96 hours; brackets: interval
Protocol: The human prostate cancer PC-3 cell line was purchased at ATCC (Ref number CRL-1435). The PC-3 cells were cultured in DMEM High Glucose medium supplemented with 10% FBS and 2 mM L-Glutamine.
They were diluted serially, in DMSO following a 3 or 3.3-fold dilution step: then each solution was diluted 50-fold in culture medium containing 10% serum before being added onto cells with a 20-fold dilution factor. The DMSO concentration was 0.1% in controls and in all treated wells.
(§1) A ray design method was used allowing the characterization of the interaction of the two compounds for several fixed proportion in the mixture. The ray design includes one ray for each single agent and 19 combination rays.
PC-3 cells were plated at 1,000 cells/well in 384-well plates in appropriate culture medium and incubated for 6 hours at 37° C., 5% CO2. […] Cell growth was evaluated by measuring intracellular ATP using CelltiterGlo® reagent (Promega) according to the manufacturer's protocol. Briefly, CellTiterGlo® was added to each plate, incubated for 1 hour then luminescent signal was read on the MicroBeta Luminescent plate reader. Three experiments have been performed on the cell line. […]
Growth inhibition percentage (GI %) was calculated according to the following equation: […]

HEC-116 cells = test: as above; type: cell-based, human; conditions: HEC-116, single agent, 96 hours; brackets: interval
Protocol: The human endometrium adenocarcinoma cell line HEC-116 cell line was purchased at JCRB (Ref number JCRB1124 Batch 11072005). The HEC-116 cells were cultured in MEMa medium supplemented with 15% FBS and 2 mM L-Glutamine.
Compounds (I) and (II) dilutions were prepared according to the material and methods of example 1. The final concentrations tested were defined by ray design method described below. The DMSO concentration was 0.1% in controls and in all treated wells.
as §1
HEC-116 cells were plated at 3,000 cells/well in 384-well plates in appropriate culture medium and incubated for 6 hours at 37° C., 5% CO2. […] Cell growth was evaluated by measuring intracellular ATP using CelltiterGlo® reagent (Promega) according to the manufacturer's protocol. Briefly, CellTiterGlo® was added to each plate, incubated for 1 hour then luminescent signal was read on the MicroBeta Luminescent plate reader.
Three experiments have been performed on this cell line. For each experiment, two 384-well plates were used allowing working with two replicates for combination rays and with four replicates for single agent rays. […]

PI3Kdelta = PI3Kdelta (Homo sapiens, UniProt O00329); conditions: PI3Kβ versus PI3Kdelta; cited from earlier work
Sequence of PI3Kdelta (O00329 whole entry, species assumed): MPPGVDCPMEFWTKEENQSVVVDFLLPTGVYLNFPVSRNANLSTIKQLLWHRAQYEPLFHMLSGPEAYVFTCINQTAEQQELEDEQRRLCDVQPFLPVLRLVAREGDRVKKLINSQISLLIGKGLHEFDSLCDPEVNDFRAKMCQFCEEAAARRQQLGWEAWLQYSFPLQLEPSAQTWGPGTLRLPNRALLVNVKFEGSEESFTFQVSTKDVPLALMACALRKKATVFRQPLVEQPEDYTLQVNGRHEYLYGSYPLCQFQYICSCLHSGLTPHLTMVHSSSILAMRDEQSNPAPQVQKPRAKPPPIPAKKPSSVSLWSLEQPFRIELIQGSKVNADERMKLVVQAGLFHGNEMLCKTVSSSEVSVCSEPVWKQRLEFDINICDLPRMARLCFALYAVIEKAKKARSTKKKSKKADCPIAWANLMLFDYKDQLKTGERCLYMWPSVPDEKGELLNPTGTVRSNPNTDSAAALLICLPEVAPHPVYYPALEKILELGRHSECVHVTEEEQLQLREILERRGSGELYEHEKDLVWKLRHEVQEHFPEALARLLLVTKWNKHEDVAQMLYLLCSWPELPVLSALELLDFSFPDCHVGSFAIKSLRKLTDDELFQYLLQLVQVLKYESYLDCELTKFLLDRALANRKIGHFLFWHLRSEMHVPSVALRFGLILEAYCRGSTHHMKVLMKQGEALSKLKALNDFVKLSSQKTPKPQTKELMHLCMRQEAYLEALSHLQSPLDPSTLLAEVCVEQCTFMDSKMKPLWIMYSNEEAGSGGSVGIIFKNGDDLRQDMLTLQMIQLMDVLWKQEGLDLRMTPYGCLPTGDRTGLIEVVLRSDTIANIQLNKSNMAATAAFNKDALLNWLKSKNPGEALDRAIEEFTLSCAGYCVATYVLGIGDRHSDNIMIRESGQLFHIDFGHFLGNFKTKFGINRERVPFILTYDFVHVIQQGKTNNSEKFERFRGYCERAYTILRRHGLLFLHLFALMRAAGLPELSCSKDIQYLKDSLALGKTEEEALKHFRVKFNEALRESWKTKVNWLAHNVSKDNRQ
Sequence of PI3Kdelta (P27986 whole entry partner, species assumed): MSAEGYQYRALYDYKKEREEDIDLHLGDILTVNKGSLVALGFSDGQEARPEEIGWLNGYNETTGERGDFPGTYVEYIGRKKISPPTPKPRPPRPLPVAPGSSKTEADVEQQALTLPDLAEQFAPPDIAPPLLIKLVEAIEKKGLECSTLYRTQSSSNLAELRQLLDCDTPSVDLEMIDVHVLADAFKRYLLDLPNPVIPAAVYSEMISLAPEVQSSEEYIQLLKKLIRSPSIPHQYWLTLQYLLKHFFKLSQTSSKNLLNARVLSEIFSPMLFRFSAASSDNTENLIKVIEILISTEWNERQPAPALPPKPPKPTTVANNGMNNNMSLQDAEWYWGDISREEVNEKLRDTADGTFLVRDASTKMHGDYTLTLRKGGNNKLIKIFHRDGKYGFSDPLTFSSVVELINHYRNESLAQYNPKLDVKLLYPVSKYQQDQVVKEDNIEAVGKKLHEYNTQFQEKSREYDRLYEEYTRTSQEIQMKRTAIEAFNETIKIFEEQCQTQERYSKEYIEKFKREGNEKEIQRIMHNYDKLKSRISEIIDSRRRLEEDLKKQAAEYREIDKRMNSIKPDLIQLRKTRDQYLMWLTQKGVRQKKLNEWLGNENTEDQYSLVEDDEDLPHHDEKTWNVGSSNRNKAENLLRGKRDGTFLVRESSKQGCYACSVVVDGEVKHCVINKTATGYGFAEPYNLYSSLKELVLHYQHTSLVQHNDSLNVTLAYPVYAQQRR

294 other kinases = conditions: at 10 μM; cited from earlier work
PI3Kgamma = PI3Kgamma (Homo sapiens, UniProt P48736); conditions: PI3Kβ versus PI3Kgamma; cited from earlier work
Sequence of PI3Kgamma (P48736 whole entry, species assumed): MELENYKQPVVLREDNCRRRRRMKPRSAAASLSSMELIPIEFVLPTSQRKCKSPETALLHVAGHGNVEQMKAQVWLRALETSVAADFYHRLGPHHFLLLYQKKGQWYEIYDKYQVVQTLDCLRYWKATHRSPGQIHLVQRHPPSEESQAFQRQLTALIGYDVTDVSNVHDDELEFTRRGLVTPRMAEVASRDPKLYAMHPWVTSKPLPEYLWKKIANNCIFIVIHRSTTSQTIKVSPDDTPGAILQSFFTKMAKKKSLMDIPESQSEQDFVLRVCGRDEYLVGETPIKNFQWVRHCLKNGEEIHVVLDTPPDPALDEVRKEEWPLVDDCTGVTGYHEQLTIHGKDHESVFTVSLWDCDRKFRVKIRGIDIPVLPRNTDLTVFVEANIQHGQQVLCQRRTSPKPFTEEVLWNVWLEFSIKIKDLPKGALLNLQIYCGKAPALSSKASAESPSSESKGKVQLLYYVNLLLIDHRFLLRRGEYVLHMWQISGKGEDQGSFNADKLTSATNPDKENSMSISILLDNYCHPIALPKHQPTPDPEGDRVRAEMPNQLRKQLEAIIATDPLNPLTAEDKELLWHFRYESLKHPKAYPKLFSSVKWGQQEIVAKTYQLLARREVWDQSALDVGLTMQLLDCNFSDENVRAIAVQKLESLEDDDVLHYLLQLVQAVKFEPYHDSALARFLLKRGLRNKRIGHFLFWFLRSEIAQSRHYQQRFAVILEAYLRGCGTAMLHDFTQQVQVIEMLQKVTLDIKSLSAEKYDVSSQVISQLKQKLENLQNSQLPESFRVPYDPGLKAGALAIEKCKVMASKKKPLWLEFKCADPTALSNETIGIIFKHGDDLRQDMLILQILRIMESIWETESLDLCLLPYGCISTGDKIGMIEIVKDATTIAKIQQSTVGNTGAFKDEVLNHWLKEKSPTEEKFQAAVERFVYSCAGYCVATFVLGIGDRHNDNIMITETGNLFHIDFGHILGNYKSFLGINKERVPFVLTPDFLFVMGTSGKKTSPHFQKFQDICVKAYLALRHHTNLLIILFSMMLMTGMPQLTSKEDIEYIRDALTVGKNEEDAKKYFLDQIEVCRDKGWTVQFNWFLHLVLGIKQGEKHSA

PI3Kalpha = PI3Kalpha (Homo sapiens, UniProt P42336); conditions: PI3Kβ versus PI3Kalpha; cited from earlier work
Sequence of PI3Kalpha (P42336 whole entry, species assumed): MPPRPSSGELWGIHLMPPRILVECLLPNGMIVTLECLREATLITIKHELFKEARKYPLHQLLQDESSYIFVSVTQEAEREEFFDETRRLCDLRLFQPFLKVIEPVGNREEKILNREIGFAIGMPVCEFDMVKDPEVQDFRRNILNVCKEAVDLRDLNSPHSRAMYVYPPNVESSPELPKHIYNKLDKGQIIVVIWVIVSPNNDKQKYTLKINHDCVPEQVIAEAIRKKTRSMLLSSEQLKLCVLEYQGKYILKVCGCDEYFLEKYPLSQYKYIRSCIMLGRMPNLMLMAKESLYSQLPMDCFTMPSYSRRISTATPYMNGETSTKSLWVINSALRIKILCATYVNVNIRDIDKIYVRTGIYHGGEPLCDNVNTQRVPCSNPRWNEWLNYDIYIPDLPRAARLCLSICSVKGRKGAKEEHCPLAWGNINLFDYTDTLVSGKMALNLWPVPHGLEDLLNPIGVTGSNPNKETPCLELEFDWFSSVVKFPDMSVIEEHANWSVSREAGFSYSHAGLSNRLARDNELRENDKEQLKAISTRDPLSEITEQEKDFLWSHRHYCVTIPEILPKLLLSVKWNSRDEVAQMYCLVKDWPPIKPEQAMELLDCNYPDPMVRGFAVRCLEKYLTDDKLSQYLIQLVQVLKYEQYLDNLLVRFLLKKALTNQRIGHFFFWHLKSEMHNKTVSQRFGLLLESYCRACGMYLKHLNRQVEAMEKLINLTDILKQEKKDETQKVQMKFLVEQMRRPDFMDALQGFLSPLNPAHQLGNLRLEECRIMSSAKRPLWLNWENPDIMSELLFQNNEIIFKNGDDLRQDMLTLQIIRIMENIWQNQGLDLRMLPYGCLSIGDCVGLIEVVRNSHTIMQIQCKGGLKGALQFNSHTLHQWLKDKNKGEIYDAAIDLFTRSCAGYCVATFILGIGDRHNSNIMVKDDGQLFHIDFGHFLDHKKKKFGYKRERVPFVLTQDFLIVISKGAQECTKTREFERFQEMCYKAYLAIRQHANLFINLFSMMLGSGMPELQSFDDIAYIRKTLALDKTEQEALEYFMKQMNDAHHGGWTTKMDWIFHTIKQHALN
Sequence of PI3Kalpha (P27986 whole entry partner, species assumed): as the sequence (P27986 whole entry partner, species assumed) above

mTOR [2] = biological target: T1, mTOR; conditions: PI3Kβ versus mTOR; cited from earlier work

Row | Structure (SMILES) | inhibition of mTOR (mTOR [1]) | Absolute IC40 (growth inhibition 40%) (PC-3 cells) | Absolute IC40 (growth inhibition 40%) (HEC-116 cells) | selectivity over PI3Kdelta (PI3Kdelta) [fold] | inhibition of 294 other kinases (294 other kinases) | selectivity over PI3Kgamma (PI3Kgamma) [fold] | selectivity over PI3Kalpha (PI3Kalpha) [fold] | selectivity over mTOR (mTOR [2]) [fold]
1 | C[C@H]1Cc2ccccc2N1C(=O)Cc1nc(N2CCOCC2)cc(=O)[nH]1 [compound (I), 2-{2-[(2S)-2-methyl-2,3-dihydro-1H-indol-1-yl]-2-oxoethyl}-6-(morpholin-4-yl)pyrimidin-4(3H)-one] | not inhibit | 20,200 nM | 12,400 nM | – | – | – | – | –
2 | Cc1c(Cn2c(C)nc3c(C(=O)O)cc(N4CCOCC4)cc32)cccc1C(F)(F)F [compound (III)] | – | – | – | 12 | less than 30% | > 1000 | > 1000 | > 1000
3 | Cc1nc(NC(=O)N2CCC[C@H]2C(N)=O)sc1-c1ccnc(C(C)(C)C(F)(F)F)c1 [compound (II), (2S)-N1-[4-Methyl-5-[2-(2,2,2-trifluoro-1,1-dimethylethyl)-4-pyridinyl]-2-thiazolyl]-1,2-pyrrolidinedicarboxamide] | – | 14,700 nM | 8,630 nM | – | – | – | – | –
